Assay results taken from ChEMBL document CHEMBL1143099, “Synthesis and SAR of potent and orally bioavailable tert-butylpyrrolidine archetype derived melanocortin subtype-4 receptor modulators” (Bioorg Med Chem Lett, 2008).
Blank lines part the entries; values can stand above or below the compound they belong to.

What was measured:
Melanocortin receptor 4 [1] = target: T1, Melanocortin receptor 4 (Homo sapiens, UniProt P32245); assay: Agonist activity at human MC4R expressed in CHO cells assessed as cAMP release relative to alpha-MSH; assay type: functional, cell-based
Melanocortin receptor 3 [2] = target: T2, Melanocortin receptor 3 (Homo sapiens, UniProt P41968); assay: Agonist activity at human MC3R expressed in CHO cells assessed as cAMP release; assay type: functional, cell-based
[3] = Binding affinity to human MC1bR
[4] = Oral bioavailability in Sprague-Dawley rat at 4 mg/kg; assay type: ADME, organism-based; conditions: in vivo
Melanocortin receptor 3 [5] = target: T2, Melanocortin receptor 3; assay: Binding affinity to human MC3R
Melanocortin receptor 3 [6] = target: T2, Melanocortin receptor 3; assay: Agonist activity at human MC3R expressed in CHO cells assessed as cAMP release at 10 uM relative to alpha-MSH; assay type: functional, cell-based
Melanocortin receptor 4 [7] = target: T1, Melanocortin receptor 4; assay: Agonist activity at human MC4R expressed in CHO cells assessed as cAMP release; assay type: functional, cell-based
Melanocortin receptor 5 [8] = target: T3, Melanocortin receptor 5 (Homo sapiens, UniProt P33032); assay: Binding affinity to human MC5R
[9] = Plasma clearance in rat at 4 mg/kg, po; assay type: ADME, organism-based; set-up: dose 4 mg/kg, route oral
Melanocortin receptor 5 [10] = target: T3, Melanocortin receptor 5; assay: Agonist activity at human MC5R expressed in CHO cells assesses as cAMP release; assay type: functional, cell-based
Melanocortin receptor 5 [11] = target: T3, Melanocortin receptor 5; assay: Agonist activity at human MC5R expressed in CHO cells assessed as cAMP release at 10 uM relative to alpha-MSH; assay type: functional, cell-based
Melanocortin receptor 4 [12] = target: T1, Melanocortin receptor 4; assay: Displacement of [125I]NDP-alpha-MSH from human MC4R expressed in CHO cells; assay type: cell-based
Melanocortin receptor 4 [13] = target: T4, Melanocortin receptor 4 (Rattus norvegicus, UniProt P70596); assay: Binding affinity to rat MC4R
[14] = target: Melanocortin receptor 4 (Rattus norvegicus) (UniProt P70596); assay: Agonist activity at rat MC4R expressed in CHO cells assessed as cAMP release at 10 uM relative to alpha-MSH; assay type: functional, cell-based
Homo sapiens [15] = organism: Homo sapiens; assay: Selectivity for human MC4R over human MC1bR
Melanocortin receptor 4 [16] = target: T1, Melanocortin receptor 4; assay: Agonist activity at human MC4R expressed in CHO cells assessed as cAMP release at 10 uM relative to alpha-MSH; assay type: functional, cell-based
Homo sapiens [17] = organism: Homo sapiens; assay: Selectivity for human MC4R over human MC3R
[18] = Agonist activity at human MC1bR expressed in CHO cells assessed as cAMP release at 10 uM relative to alpha-MSH; assay type: functional
[19] = Agonist activity at human MC1bR expressed in CHO cells assessed as cAMP release; assay type: functional, cell-based
Melanocortin receptor 4 [20] = target: T4, Melanocortin receptor 4; assay: Agonist activity at rat MC4R expressed in CHO cells assessed as cAMP release; assay type: functional, cell-based

T2 sequence (P41968 whole entry): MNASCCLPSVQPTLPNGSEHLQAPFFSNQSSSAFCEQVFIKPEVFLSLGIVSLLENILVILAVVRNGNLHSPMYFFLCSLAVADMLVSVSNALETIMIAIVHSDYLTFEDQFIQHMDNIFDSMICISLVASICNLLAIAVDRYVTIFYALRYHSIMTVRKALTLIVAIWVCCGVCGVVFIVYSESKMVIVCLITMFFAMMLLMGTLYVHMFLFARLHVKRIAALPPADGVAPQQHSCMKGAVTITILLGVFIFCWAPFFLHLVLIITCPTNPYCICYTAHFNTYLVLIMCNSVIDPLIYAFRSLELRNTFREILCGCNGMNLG
T1 sequence (P32245 whole entry): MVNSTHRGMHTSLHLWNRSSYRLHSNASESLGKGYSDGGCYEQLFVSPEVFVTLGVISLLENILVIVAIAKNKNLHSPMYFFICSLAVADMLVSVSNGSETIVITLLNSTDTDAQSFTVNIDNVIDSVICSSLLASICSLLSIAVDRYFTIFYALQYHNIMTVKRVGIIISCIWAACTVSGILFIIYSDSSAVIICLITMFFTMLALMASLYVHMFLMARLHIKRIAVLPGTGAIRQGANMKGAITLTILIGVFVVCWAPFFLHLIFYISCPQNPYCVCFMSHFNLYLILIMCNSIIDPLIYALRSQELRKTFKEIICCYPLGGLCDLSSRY
Sequence of Melanocortin receptor 4 (Rattus norvegicus) (P70596 whole entry): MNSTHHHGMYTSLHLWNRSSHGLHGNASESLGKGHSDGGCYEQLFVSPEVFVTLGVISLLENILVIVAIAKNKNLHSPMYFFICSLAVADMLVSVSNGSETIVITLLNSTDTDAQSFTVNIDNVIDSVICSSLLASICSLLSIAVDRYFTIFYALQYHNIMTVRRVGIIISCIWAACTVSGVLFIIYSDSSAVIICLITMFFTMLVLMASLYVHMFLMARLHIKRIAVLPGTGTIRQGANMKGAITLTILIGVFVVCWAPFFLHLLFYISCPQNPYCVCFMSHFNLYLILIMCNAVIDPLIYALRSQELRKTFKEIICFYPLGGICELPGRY
T4 sequence (P70596 whole entry): as above
T3 sequence (P33032 whole entry): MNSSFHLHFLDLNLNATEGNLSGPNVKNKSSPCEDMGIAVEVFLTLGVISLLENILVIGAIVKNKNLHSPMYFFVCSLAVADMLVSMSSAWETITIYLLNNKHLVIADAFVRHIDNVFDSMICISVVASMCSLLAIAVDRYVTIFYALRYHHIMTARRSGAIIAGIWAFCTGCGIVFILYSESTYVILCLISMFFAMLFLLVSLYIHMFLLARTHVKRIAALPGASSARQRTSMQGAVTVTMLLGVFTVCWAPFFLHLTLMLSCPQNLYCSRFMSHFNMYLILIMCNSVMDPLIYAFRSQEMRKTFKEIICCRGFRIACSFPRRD

Structure (SMILES): CC[C@H](NC(C)=O)c1cc(Cl)ccc1C1CCN(C(=O)[C@@H]2CN(C(C)(C)C)C[C@H]2c2ccc(F)cc2Cl)CC1
- %max (Melanocortin receptor 4 [1]): 84%
- EC50 (Melanocortin receptor 4 [7]): 215 nM
- IC50 (Melanocortin receptor 4 [12]): 216 nM

Structure (SMILES): CC[C@H](NC(C)=O)c1cc(Cl)ccc1C1CCN(C(=O)[C@@H]2CN(C(C)(C)C)C[C@H]2c2ccc(C(F)(F)F)cc2)CC1
- %max (Melanocortin receptor 4 [1]): 90%
- EC50 (Melanocortin receptor 4 [7]): 67.2 nM
- IC50 (Melanocortin receptor 4 [12]): 28.1 nM

Structure (SMILES): CC[C@H](NC(C)=O)c1cc(Cl)ccc1C1CCN(C(=O)[C@H]2CN(C(C)(C)C)C[C@@H]2c2ccc3ccccc3c2)CC1
- %max (Melanocortin receptor 4 [1]): 57%
- EC50 (Melanocortin receptor 4 [7]): 1920 nM
- IC50 (Melanocortin receptor 4 [12]): 528 nM

Structure (SMILES): CC[C@H](NC(C)=O)c1cc(Cl)ccc1C1CCN(C(=O)[C@@H]2CN(C(C)(C)C)C[C@H]2c2ccc(Cl)cc2Cl)CC1
- %max (Melanocortin receptor 4 [1]): 48%
- EC50 (Melanocortin receptor 4 [7]): 156 nM
- IC50 (Melanocortin receptor 4 [12]): 17.9 nM

Structure (SMILES): CC[C@H](NC(C)=O)c1cc(Cl)ccc1C1CCN(C(=O)[C@@H]2CN(C(C)(C)C)C[C@H]2c2ccc(C(F)(F)F)cc2F)CC1
- %max (Melanocortin receptor 4 [1]): 99%
- EC50 (Melanocortin receptor 4 [7]): 88.8 nM
- IC50 (Melanocortin receptor 4 [12]): 22.7 nM

Structure (SMILES): CC[C@H](NC(C)=O)c1cc(Cl)ccc1C1CCN(C(=O)[C@H]2CN(C(C)(C)C)C[C@@H]2c2ccc(F)cc2F)CC1
- %max (Melanocortin receptor 4 [1]): 83%
- EC50 (Melanocortin receptor 4 [7]): 565 nM
- IC50 (Melanocortin receptor 4 [12]): 640 nM

Structure (SMILES): CC[C@H](NC(C)=O)c1cc(Cl)ccc1C1CCN(C(=O)[C@H]2CN(C(C)(C)C)C[C@@H]2c2ccc(F)cc2Cl)CC1
- Activity (Melanocortin receptor 4 [16]): 10%
- IC50 (Melanocortin receptor 4 [12]): 82.2 nM

Structure (SMILES): CC[C@H](NC(C)=O)c1cc(Cl)ccc1C1CCN(C(=O)[C@@H]2CN(C(C)(C)C)C[C@H]2c2ccc3ccccc3c2)CC1
- %max (Melanocortin receptor 4 [1]): 47%
- IC50 [3]: 6.59 µM
- bioavailability [4]: 15%
- IC50 (Melanocortin receptor 3 [5]): 12200 nM
- Activity (Melanocortin receptor 3 [6]): 16%
- EC50 (Melanocortin receptor 4 [7]): 120 nM
- IC50 (Melanocortin receptor 5 [8]): 675 nM
- CL/F [9]: 37.6 mL/min/kg
- EC50 (Melanocortin receptor 5 [10]): 1230 nM
- Activity (Melanocortin receptor 5 [11]): 35%
- IC50 (Melanocortin receptor 4 [12]): 76.2 nM
- Activity [18]: 10%

Structure (SMILES): CC[C@H](NC(C)=O)c1cc(Cl)ccc1C1CCN(C(=O)[C@@H]2CN(C(C)(C)C)C[C@H]2c2cc(F)c(F)cc2F)CC1
- %max (Melanocortin receptor 4 [1]): 93%
- EC50 (Melanocortin receptor 4 [7]): 130 nM
- IC50 (Melanocortin receptor 4 [12]): 128 nM

Structure (SMILES): CC[C@H](NC(C)=O)c1cc(Cl)ccc1C1CCN(C(=O)[C@@H]2CN(C(C)(C)C)C[C@H]2c2ccc(F)cc2F)CC1
- %max (Melanocortin receptor 4 [1]): 108%
- EC50 (Melanocortin receptor 4 [7]): 17.9 nM
- IC50 (Melanocortin receptor 4 [12]): 70 nM

Structure (SMILES): CC[C@H](NC(C)=O)c1cc(Cl)ccc1C1CCN(C(=O)[C@H]2CN(C(C)(C)C)C[C@@H]2c2ccc(Cl)cc2F)CC1
- %max (Melanocortin receptor 4 [1]): 45%
- EC50 (Melanocortin receptor 4 [7]): 111 nM
- IC50 (Melanocortin receptor 4 [12]): 13.2 nM

Structure (SMILES): CC[C@H](NC(C)=O)c1cc(Cl)ccc1C1CCN(C(=O)[C@H]2CN(C(C)(C)C)C[C@@H]2c2ccc(OC)cc2F)CC1
- %max (Melanocortin receptor 4 [1]): 34%
- EC50 (Melanocortin receptor 4 [7]): 245 nM
- IC50 (Melanocortin receptor 4 [12]): 37.2 nM

Structure (SMILES): CC[C@H](NC(C)=O)c1cc(Cl)ccc1C1CCN(C(=O)[C@H]2CN(C(C)(C)C)C[C@@H]2c2cc(F)c(F)cc2F)CC1
- %max (Melanocortin receptor 4 [1]): 50%
- EC50 (Melanocortin receptor 4 [7]): 3700 nM
- IC50 (Melanocortin receptor 4 [12]): 101 nM

The next compounds have a lower IC50 (Melanocortin receptor 4 [12]) than those just listed; values first:

- %max (Melanocortin receptor 4 [1]): 100%
- EC50 (Melanocortin receptor 3 [2]): 157 nM
- IC50 [3]: 0.312 µM
- bioavailability [4]: 3.8%
- IC50 (Melanocortin receptor 3 [5]): 2960 nM
- Activity (Melanocortin receptor 3 [6]): 91%
- EC50 (Melanocortin receptor 4 [7]): 4.6 nM
- IC50 (Melanocortin receptor 5 [8]): 205 nM
- CL/F [9]: 66.4 mL/min/kg
- EC50 (Melanocortin receptor 5 [10]): 167 nM
- Activity (Melanocortin receptor 5 [11]): 101%
- IC50 (Melanocortin receptor 4 [12]): 11.2 nM
Structure (SMILES): CC[C@H](NC(C)=O)c1cc(Cl)ccc1C1CCN(C(=O)[C@@H]2CN(C(C)(C)C)C[C@H]2c2ccc(OC)cc2F)CC1

- Activity (Melanocortin receptor 4 [16]): 5%
- IC50 (Melanocortin receptor 4 [12]): 9.8 nM
Structure (SMILES): CC[C@H](NC(C)=O)c1cc(Cl)ccc1C1CCN(C(=O)[C@H]2CN(C(C)(C)C)C[C@@H]2c2ccc(C(F)(F)F)cc2F)CC1

- IC50 [3]: 16.4 µM
- bioavailability [4]: 28%
- IC50 (Melanocortin receptor 3 [5]): 3780 nM
- Activity (Melanocortin receptor 3 [6]): 8%
- IC50 (Melanocortin receptor 4 [13]): 1 nM
- Activity [14]: 15%
- IC50 (Melanocortin receptor 5 [8]): 450 nM
- CL/F [9]: 5.6 mL/min/kg
- Activity (Melanocortin receptor 4 [16]): 1%
- Activity (Melanocortin receptor 5 [11]): 11%
- IC50 (Melanocortin receptor 4 [12]): 7.8 nM
Structure (SMILES): CC[C@H](NC(C)=O)c1cc(Cl)ccc1C1CCN(C(=O)[C@H]2CN(C(C)(C)C)C[C@@H]2c2ccc(C(F)(F)F)cc2)CC1
- Activity [18]: 5%

- %max (Melanocortin receptor 4 [1]): 97%
- EC50 (Melanocortin receptor 3 [2]): 250 nM
- IC50 [3]: 1.34 µM
- bioavailability [4]: 24.3%
- IC50 (Melanocortin receptor 3 [5]): 1490 nM
- Activity (Melanocortin receptor 3 [6]): 92%
- EC50 [19]: 905 nM
- Activity [14]: 106%
- EC50 (Melanocortin receptor 4 [7]): 2.8 nM
- IC50 (Melanocortin receptor 5 [8]): 129 nM
- CL/F [9]: 11.4 mL/min/kg
- EC50 (Melanocortin receptor 4 [20]): 0.9 nM
- EC50 (Melanocortin receptor 5 [10]): 372 nM
- Activity (Melanocortin receptor 5 [11]): 98%
- IC50 (Melanocortin receptor 4 [12]): 6.2 nM
Structure (SMILES): CC[C@H](NC(C)=O)c1cc(Cl)ccc1C1CCN(C(=O)[C@@H]2CN(C(C)(C)C)C[C@H]2c2ccc(Cl)cc2F)CC1
- Activity [18]: 57%

- %max (Melanocortin receptor 4 [1]): 33%
- EC50 (Melanocortin receptor 3 [2]): 917 nM
- IC50 [3]: 174 µM
- bioavailability [4]: 34.3%
- IC50 (Melanocortin receptor 3 [5]): 2950 nM
- Activity (Melanocortin receptor 3 [6]): 38%
- EC50 [19]: 1060 nM
- IC50 (Melanocortin receptor 4 [13]): 1.5 nM
- Activity [14]: 44%
- EC50 (Melanocortin receptor 4 [7]): 13.4 nM
- IC50 (Melanocortin receptor 5 [8]): 280 nM
- CL/F [9]: 9.12 mL/min/kg
- EC50 (Melanocortin receptor 4 [20]): 10.3 nM
- EC50 (Melanocortin receptor 5 [10]): 455 nM
- Activity (Melanocortin receptor 5 [11]): 30%
- IC50 (Melanocortin receptor 4 [12]): 4.1 nM
Structure (SMILES): CC[C@H](NC(C)=O)c1cc(Cl)ccc1C1CCN(C(=O)[C@H]2CN(C(C)(C)C)C[C@@H]2c2ccc(Br)cc2F)CC1
- Activity [18]: 33%

- %max (Melanocortin receptor 4 [1]): 100%
- EC50 (Melanocortin receptor 3 [2]): 97.4 nM
- IC50 [3]: 0.695 µM
- bioavailability [4]: 24.7%
- IC50 (Melanocortin receptor 3 [5]): 1050 nM
- Activity (Melanocortin receptor 3 [6]): 88%
- EC50 [19]: 274 nM
- IC50 (Melanocortin receptor 4 [13]): 1.7 nM
- Activity [14]: 94%
- EC50 (Melanocortin receptor 4 [7]): 2.1 nM
- IC50 (Melanocortin receptor 5 [8]): 65.3 nM
- CL/F [9]: 7.3 mL/min/kg
- EC50 (Melanocortin receptor 4 [20]): 0.5 nM
- EC50 (Melanocortin receptor 5 [10]): 102 nM
- Activity (Melanocortin receptor 5 [11]): 88%
- IC50 (Melanocortin receptor 4 [12]): 4 nM
Structure (SMILES): CC[C@H](NC(C)=O)c1cc(Cl)ccc1C1CCN(C(=O)[C@@H]2CN(C(C)(C)C)C[C@H]2c2ccc(Br)cc2F)CC1
- Activity [18]: 57%

- IC50 [3]: 20 µM
- bioavailability [4]: 30.3%
- IC50 (Melanocortin receptor 3 [5]): 4290 nM
- Activity (Melanocortin receptor 3 [6]): 5%
- IC50 (Melanocortin receptor 4 [13]): 0.5 nM
- Activity [14]: 6%
- IC50 (Melanocortin receptor 5 [8]): 245 nM
- CL/F [9]: 11.4 mL/min/kg
- Ratio IC50 (Homo sapiens [15]): > 6000
- EC50 (Melanocortin receptor 5 [10]): 1600 nM
- Activity (Melanocortin receptor 4 [16]): 1%
- Activity (Melanocortin receptor 5 [11]): 10%
- IC50 (Melanocortin receptor 4 [12]): 3.3 nM
- Ratio IC50 (Homo sapiens [17]): > 1000
Structure (SMILES): CC[C@H](NC(C)=O)c1cc(Cl)ccc1C1CCN(C(=O)[C@H]2CN(C(C)(C)C)C[C@@H]2c2ccc(Cl)cc2Cl)CC1
- Activity [18]: 3%
